This note sets out measurements from US20240299393A1, “SMALL MOLECULE DISRUPTORS OF PROTEIN INTERACTIONS IN HISTONE DEACETYLASE COMPLEXES” (Dana-Farber Cancer Institute, Inc., priority 2021, published 2024).

One series addresses T1, human SIN3A PAH2 domain (Homo sapiens, UniProt Q96ST3).
T1 construct: Residues 301-390 of human SIN3A (PAH2 domain) were inserted into the pMALC2XE vector for NMR experiments; made in house; host or cells: E. coli BL21 (DE3)
The series is described as follows: Ligand-detected NMR, human SIN3A PAH2. It is filed as binding, H. sapiens. As to conditions: 300 μM compound, 10 μM protein. The method, then: (§1) Ligand-detected NMR experiments: all results were acquired using a 3 mm tube at 25° C. on a Bruker 600 MHz Avance II system equipped with a CPPTCI cryoprobe (Bruker BioSpin Corp.). In all experiments, the concentration of E6R was fixed at 300 μM (from a stock of 25 mM in deuterated DMSO) and the concentration of the protein at 10 μM. The volume of deuterated DMSO was kept constant (1.5%) in all tested samples. Right before the experiments, the compound and protein were diluted in 1×PBS containing 0.1% deuterated dithiothreitol (DTT) to a total volume of 200 μL. Samples were diluted by 5% with D2O for magnetic field lock. Spectra were acquired for ligand only, protein only, and ligand+protein. […] STD experiments [Mayer et al 2001] were acquired with 160 scans, with protein irradiation applied for 3 s at 0 ppm and −20 ppm for the on and off resonance experiments, respectively. On and off resonance spectra were collected and stored separately. One-dimensional CPMG-R2 edited experiments [Hajduk et al 1997] were collected for samples with and without proteins using seven CPMG delays (0, 25, 50, 100, 300, 500, and 800 ms) with four scans per delay. Proton spectra used to measure DLB and chemical shift perturbations in the absence and presence of the proteins were recorded with 16 scans using a recycle delay of 3 s. […]

Series [1] relates to human neuroblastoma SK-N-BE(2)-C xenograft. Put plainly: Neuroblastoma xenograft efficacy study. It is filed as in vivo. As to conditions: E6R 50 mg/kg, SAHA 20 mg/kg. As for the experimental part:
Xenografts studies were performed at the TRACE PDX platform of the Leuven Cancer Institute (LKI) at KU Leuven-UZ Leuven. Treatment experiments included 24 NMRI-Foxlnu nude mice (Taconic) implanted with human neuroblastoma cell line SK-N-BE(2)-C(2 million cells/implant/mouse). Cells, tested for a full panel of murine pathogens (Impact profile I, IDEXX) prior to engraftment, were resuspended in 50% matrigel solution in PBS for injection in the mouse right flank. When tumors reached a volume of approximately 200 mm^3, mice were randomly assigned to vehicle (34% DMSO, 55% saline 0.9%, 5% ethanol, 5% kolliphor, 1% NaOH 1 M), E6R (50 mg/kg), or SAHA (20 mg/kg) treatment groups. Treatments were administered daily intraperitoneally for 10 days or until reaching human endpoint (i.e. tumor volume >1,500 mm^3). Tumors were measured daily with digital calipers, and volume was estimated as V=L×W×H×(π/6) (L: length; W: width; H: height). […] All data were analyzed using GraphPad Prism 8. Comparisons between the vehicle and treated groups were tested for statistical significance using […].

For series [2], the system named is PAH1 and PAH3 domains of human SIN3A and SIN3B. The series is described as follows: Ligand-detected NMR, human SIN3A and SIN3B PAH1 and PAH3. It is filed as binding, H. sapiens. Conditions: FIG. 28. The method, then:
as §1

The target in series [3] is T2, PAH2 domain of mouse M. musculus SIN3B (Mus musculus, UniProt Q62141, C241A).
T2 construct: M. musculus SIN3B PAH2 C241A (residues 148-252) expressing plasmid; GST (cleaved yes); made in house; host or cells: E. coli BL21 (DE3), minimal medium with 15N-ammonium chloride and 13C-glucose
Put plainly: Ligand-detected NMR, mouse SIN3B PAH2. Format: binding. The method, then: Expression of mouse ^13C/^15N SIN3B PAH2: the same M. musculus SIN3B PAH2 C241A (residues 148-252) expressing plasmid as reported by [Kumar et al 2011] was used here. The construct was overexpressed in E. coli BL21 (DE3) in 1 L of minimum medium supplemented with 1 g 15N-ammonium chloride (Cambridge Isotope Laboratories) and 2 g 13C-glucose (Cambridge Isotope Laboratories). Cells were grown at 37° C. to an OD of 0.8, cooled to 17° C., induced with 500 μM isopropyl-1-thio-D-galactopyranoside, incubated overnight at 17° C., collected by centrifugation, and stored at −80° C. 13C/15N-double labeled protein was purified as for other GST-fused constructs. The GST tag was cleaved as described above.
Ligand-detected NMR experiments: all results were acquired using a 3 mm tube at 25° C. on a Bruker 600 MHz Avance II system equipped with a CPPTCI cryoprobe (Bruker BioSpin Corp.). In all experiments, the concentration of E6R was fixed at 300 μM (from a stock of 25 mM in deuterated DMSO) and the concentration of the protein at 10 μM. The volume of deuterated DMSO was kept constant (1.5%) in all tested samples. […] Proton spectra used to measure DLB and chemical shift perturbations in the absence and presence of the proteins were recorded with 16 scans using a recycle delay of 3 s. […]

Entries after “also recorded” stand apart in the source; their conditions may differ.

T1 sequence (Q96ST3 301-390): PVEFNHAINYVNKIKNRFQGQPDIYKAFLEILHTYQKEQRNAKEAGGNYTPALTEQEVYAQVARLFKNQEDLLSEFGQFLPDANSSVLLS
T2 sequence (Q62141 148-252 C241A): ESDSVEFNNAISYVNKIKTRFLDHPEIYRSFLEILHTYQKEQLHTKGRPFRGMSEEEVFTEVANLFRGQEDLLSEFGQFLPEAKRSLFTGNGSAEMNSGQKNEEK

Turning to `C[C@@H](NC(=O)c1c(O)n2ccccc2nc1=O)c1ccccc1` [E6R, 4-hydroxy-2-oxo-N—((R)-1-phenylethyl)-3,4-dihydro-2H-pyrido[, 2-a]pyrimidine-3-carboxamide], the “binding to human SIN3A PAH2 by NMR” value on human SIN3A PAH2 domain is given as “could bind; also recorded: virtually identical to those of yeast Sin3 PAH2”. In addition, in series [1] (daily), the “tolerability and body weight of xenografted mice” value is recorded as “did not affect mice weight; also recorded: well-tolerated”. The “growth of neuroblastoma tumors compared to vehicle” value in series [1] (daily intraperitoneally 10 days) was “significantly reduced the growth”. Also, the “binding to other PAH domains of human SIN3A and SIN3B by NMR” value in series [2] is “can bind”. Further, in series [3], the “binding to mouse SIN3B PAH2 by NMR” value is “virtually identical to those of yeast Sin3 PAH2”.
